Measurements published in patent publication US11066399B2, “Ferroportin inhibitors” (Vifor (International) AG, priority 2015, dated 2021).

Assays:
[1] = molecular target: T1, human Fpn (Homo sapiens, UniProt Q9NP59); test: Biophysical Ferroportin-Hepcidin Binding Assay (fluorescence polarization); settings: average (AVE) of multiple measurements; TMR-hepcidin binding to purified human Fpn; read-out: FP IC50
T1 construct: FLAG (C); made in house; host or cells: Pichia pastoris
T1 sequence (Q9NP59 1-571): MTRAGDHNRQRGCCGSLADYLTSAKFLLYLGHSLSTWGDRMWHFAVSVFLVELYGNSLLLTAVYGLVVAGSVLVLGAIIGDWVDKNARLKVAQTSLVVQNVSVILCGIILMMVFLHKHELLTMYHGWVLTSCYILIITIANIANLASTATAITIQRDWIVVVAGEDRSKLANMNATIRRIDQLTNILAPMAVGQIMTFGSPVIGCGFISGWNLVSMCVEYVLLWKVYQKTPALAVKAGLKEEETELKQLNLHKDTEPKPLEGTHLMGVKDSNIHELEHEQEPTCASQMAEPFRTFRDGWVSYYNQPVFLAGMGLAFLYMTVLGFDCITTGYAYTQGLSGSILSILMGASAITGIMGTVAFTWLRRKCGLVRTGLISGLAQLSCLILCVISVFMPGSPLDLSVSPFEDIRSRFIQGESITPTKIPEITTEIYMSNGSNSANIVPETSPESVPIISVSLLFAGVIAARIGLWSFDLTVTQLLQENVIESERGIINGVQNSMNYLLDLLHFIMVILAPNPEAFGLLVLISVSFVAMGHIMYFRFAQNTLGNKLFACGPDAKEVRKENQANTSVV
Procedure: This biophysical assay was developed to confirm inhibition of hepcidin binding to ferroportin (Fpn) more directly. Incubation of TMR-hepcidin with purified human Fpn isolated from Pichia pastoris yeast cells expressing human Fpn with a C-terminal FLAG affinity tag (Bonaccorsi di Patti, 2014) leads to increased fluorescence polarization (FP) of the TMR-hepcidin ligand. Small molecular weight Fpn inhibitors were tested for inhibition of binding of TMR-hepcidin to Fpn, as detected by dose-dependent decrease of the TMR FP signal, as described in detail below.
A mixture of […] human Fpn and 30 nM TMR-hepcidin in FP assay buffer containing 50 mM Tris-HCl pH 7.3, 200 mM NaCl, 0.02% DDM, 0.1% BSA was plated into a 384 well black low volume round bottom plate (Corning, Cat. 3677) at 16 μl per well. 8 μl of serial dilutions of test compounds were added in duplicates to reach final Fpn and TMR-hepcidin concentrations of […] and 20 nM, respectively. Plates were incubated for 90 minutes at room temperature and parallel (S) and perpendicular (P) fluorescence was measured in a Synergy H1 fluorescence reader (BioTek). FP values were calculated in mP according to the following formula.

[2] = molecular target: T2, ferroportin (Fpn) (Mus musculus, UniProt Q9JHI9); test: Hepcidin Internalization Assay (J774); format: cell-based; settings: average (AVE) of multiple measurements; TMR-hepcidin 25 nM, J774 cells
T2 construct: host or cells: J774 mouse macrophage cell line, Fe(III)-NTA induced
T2 sequence (Q9JHI9 1-570): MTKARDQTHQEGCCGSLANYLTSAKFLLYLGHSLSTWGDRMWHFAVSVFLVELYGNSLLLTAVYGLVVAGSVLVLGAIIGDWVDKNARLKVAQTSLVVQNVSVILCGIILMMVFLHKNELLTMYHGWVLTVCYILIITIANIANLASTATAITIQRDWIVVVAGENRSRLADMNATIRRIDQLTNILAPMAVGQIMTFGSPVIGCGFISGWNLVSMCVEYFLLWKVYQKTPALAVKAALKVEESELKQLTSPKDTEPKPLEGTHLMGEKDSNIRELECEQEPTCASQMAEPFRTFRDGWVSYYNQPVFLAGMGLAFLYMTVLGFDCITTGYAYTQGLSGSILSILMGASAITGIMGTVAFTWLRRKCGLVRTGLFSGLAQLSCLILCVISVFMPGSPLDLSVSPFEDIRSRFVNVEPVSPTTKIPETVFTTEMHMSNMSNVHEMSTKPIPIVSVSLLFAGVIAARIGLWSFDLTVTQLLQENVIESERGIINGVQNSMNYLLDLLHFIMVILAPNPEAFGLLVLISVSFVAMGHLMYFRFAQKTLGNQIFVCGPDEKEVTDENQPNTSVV
Excerpt: This cellular assay allows quantification of the binding of hepcidin to ferroportin (Fpn) through microscopic detection of internalization of a fluorescently labeled hepcidin into J774 cells. […] Binding of hepcidin to Fpn triggers internalization and degradation of both hepcidin and Fpn. However, the TMR (6-carboxytetramethylrhodamine) fluorophore attached to hepcidin remains associated with the cell after degradation of the hepcidin peptide backbone. Therefore, microscopic detection of cell-associated TMR fluorescence is a measure of hepcidin binding to Fpn and internalization of hepcidin and Fpn. If TMR-hepcidin is prevented from binding to Fpn, cellular TMR fluorescence remains low (Dürrenberger et al, 2013). The effect of small molecular weight Fpn inhibitor compounds in this assay was evaluated in vitro as described below.
After overnight incubation, cells were washed 3 times with pre-warmed DMEM w/o phenol red, 30 μl/well of DMEM w/o phenol red was added after the final wash and 10 μl/well of dilution series of test compounds were added in triplicates. […] Cells were incubated in a total volume of 50 μl at 37° C. with 5% CO2 for 2 hours, then Hoechst 33342 dye was added to a final concentration of 0.5 μg/ml to stain nuclei and further incubated for 10 min. at 37° C. with 5% CO2. Cells were washed 3 times with PBS and fixed in 100 μl of 4% paraformaldehyde in PBS for 15 min. at room temperature. After removal of the paraformaldehyde solution, cells were washed 3 times with PBS leaving 100 μl per well and the plates were sealed with foil plate seal. TMR (530-550 nm excitation/575-625 nm emission/400 ms exposure time) and Hoechst 33342 (360-370 nm excitation/420-460 nm emission/10 ms exposure time) fluorescence images were acquired using a ScanR plate imager (Olympus) with a 20× high NA objective. Four pictures were acquired per well and fluorescence channel covering ca. 1500 cells per well. The acquired image data was analysed with the ScanR image analysis software. Image analysis included detection of nuclei (Hoechst 33342 fluorescence), identification of cell-associated regions, application of a virtual channel and thresholding for rolling-ball-type background reduction, followed by application of the Sum(Mean) algorithm to measure the TMR fluorescence associated with cells as a quantitative measure for internalized TMR-hepcidin. IC50 values were calculated with the Sum(Mean) raw data using “log(inhibitor) vs. response” curve fitting of Prism 5 software (GraphPad Software Inc., version 5.02).

O=C(NCc1ncccc1F)c1cnc(CCNCCc2nc3ccccc3[nH]2)o1 [Example 1] showed an IC50 [1] of 16 nM and an IC50 [2] of 12 nM.
For O=C(NCc1ncccc1F)c1cnn(CCNCCc2cc3ccccc3[nH]2)c1 [Example 277], the IC50 [2] was 11 nM.
Compound O=C(NCc1ncccc1F)c1cnc(C2CN(CCc3nc4ccccc4[nH]3)C2)o1 [Example 2] has an IC50 [1] of 17 nM and an IC50 [2] of 35 nM.
For O=C(NCc1ncccc1F)c1csc(CCNCc2nc3ccccc3[nH]2)n1 [Example 40], the IC50 [1] was 68 nM and the IC50 [2] was 49 nM.
